Where two headings read alike, the source gives them in different places.
Experiments:
[1] = system: Enterococcus faecalis LMG 8222; experiment: Broth microdilution antimicrobial assay (MIC1/2); assay type: cell-based
[2] = system: Clostridium perfringens NCTC 8798; assay type: cell-based
[3] = system: Streptococcus pneumoniae LMG 21598; experiment: Broth microdilution antimicrobial assay (MIC1/2); assay type: cell-based
[4] = system: Enterococcus faecium LMG 9431; experiment: Broth microdilution antimicrobial assay (MIC1/2); assay type: cell-based
[5] = system: Streptococcus pyogenes LMG 15868; experiment: Broth microdilution antimicrobial assay (MIC1/2); assay type: cell-based
[6] = system: Staphylococcus aureus LMG 10147; experiment: Broth microdilution antimicrobial assay (MIC1/2); assay type: cell-based
[7] = fluorescence permeability assays, model membranes, natural compounds; ref Geudens et al., 2017; cited from earlier work
Excerpt: We have previously reported the three-dimensional structure of the 2 neutral subgroup representatives, viscosinamide A (D^0) ([Geudens et al., 2014]) and pseudodesmin A (L^0) ([Sinnaeve et al., 2009a], [b]), while that of anionic WLIP (D^–) was already available from literature ([Han et al., 1992]). To avoid ambiguity, the three-dimensional structure is referred to hereafter as the ‘fold’ of a Ps-CLiP whereas the chemical (covalent) structure will simply be referred to as ‘structure’ as indicated in Figure 1C. In spite of the D/L switch in stereochemistry for Leu5, all have identical backbone ...

[8] = RP-HPLC retention time as measure of overall hydrophobicity; assay type: physicochemical; conditions: chromatographic, RP-HPLC (LC-MS system: Kinetex C18, 150 mm × 4.60 mm, 5 μm, 1.5 ml/min; gradient not stated at this place)
Protocol: Chemicals and general procedures are listed in the Supplementary Materials section. All procedures for the synthesis and purification of specific building blocks as well as solid-phase peptide synthesis, and cyclization release of the PsdA-analogs were carried out as described previously for the total synthesis of pseudodesmin A (1) and its enantiomer (2) ([De Vleeschouwer et al., 2014]). Practical details and relevant variations of the procedures for specific cases are collected in the Supplementary Materials section of this paper, together with full characterization of all fatty acid building blocks and analogs. The crude cyclic lipopeptides were purified using either semi-preparative or preparative RP-HPLC. Semi-preparative purification was performed on an Agilent 1100 series instrument using a Kromasil column (C18, 250 mm × 7.8 mm, 5 μm particle size). The analyses were executed with a flow rate of 3 ml/min and with the following solvent systems: H2O containing 0.1% HCOOH (A) and CH3CN (B). […] High-resolution mass spectra were recorded on an Agilent 6220A time-of-flight mass spectrometer, equipped with an Agilent ESI/APCI multimode source. […]

[9] = minimal concentration inhibiting growth by at least 50% vs untreated control, broth microdilution (CLSI), 0.016-32 μg/ml twofold dilutions, ~5 × 10^5 CFU/ml, 37°C, 24 h, OD 590 nm
[10] = minimal concentration inhibiting growth by at least 50% vs untreated control, broth microdilution (CLSI), Reinforced Clostridial Medium, 0.016-32 μg/ml twofold dilutions, ~5 × 10^5 CFU/ml, 37°C, 24 h, OD 590 nm

| Compound | MIC1/2 E. faecalis LMG 8222 [1] [µg/mL] | MIC1/2 C. perfringens NCTC 8798 [2] [µg/mL] | MIC1/2 S. pneumoniae LMG 21598 [3] [µg/mL] | MIC1/2 E. faecium LMG 9431 [4] [µg/mL] | MIC1/2 S. pyogenes LMG 15868 [5] [µg/mL] | MIC1/2 S. aureus LMG 10147 [6] [µg/mL] | MIC1/2 E. faecalis LMG 8222 [1, 9] [µg/mL] | MIC1/2 C. perfringens NCTC 8798 [2, 10] [µg/mL] | MIC1/2 S. pneumoniae LMG 21598 [3, 9] [µg/mL] | MIC1/2 E. faecium LMG 9431 [4, 9] [µg/mL] | MIC1/2 S. pyogenes LMG 15868 [5, 9] [µg/mL] | C1/2 of membrane permeabilization [7] [µM] | MIC1/2 S. aureus LMG 10147 [6, 9] [µg/mL] | HPLC retention time (overall hydrophobicity) [8] [min] |
| --- | --- | --- | --- | --- | --- | --- | --- | --- | --- | --- | --- | --- | --- | --- |
| CN[C@H](CC(C)C)C(=O)N[C@H]1C(=O)N[C@@H](CC(N)=O)C(=O)N[C@H]2C(=O)N[C@H]3C(=O)N[C@H](C(=O)N[C@H](C(=O)O)c4cc(O)cc(O)c4-c4cc3ccc4O)[C@H](O)c3ccc(c(Cl)c3)Oc3cc2cc(c3O[C@@H]2O[C@H](CO)[C@@H](O)[C@H](O)[C@H]2O[C@H]2C[C@](C)(N)[C@H](O)[C@H](C)O2)Oc2ccc(cc2Cl)[C@H]1O [Vancomycin] | 4 | 0.25 | 0.25 | 1 | 0.5 | 2 | – | – | – | – | – | – | – | – |
| Daptomycin | – | – | – | – | – | – | >32 | 8 | 4 | 16 | 2 | – | – | – |
| Pseudodesmin A [compound 1] | – | – | – | – | – | – | 4 | 2 | 2 | 4 | 1 | ~3.7 | 4 | 7.4 |
| viscosin | – | – | – | – | – | – | – | – | – | – | – | ~4.9 | – | – |

Source: paper PMC7187754, “Identification of the Molecular Determinants Involved in Antimicrobial Activity of Pseudodesmin A, a Cyclic Lipopeptide From the Viscosin Group” (Frontiers in Microbiology, 2020)
